Assay results published in the NIST ThermoML archive (doi:10.1016/j.jct.2019.06.005).
± gives the expanded uncertainty stated by the source.

Experiment: xn = mol fraction of the nth substance listed
Details: for surface tension liquid-gas: Maximal bubble pressure; for mass density: 100 kPa, Liquid, Vibrating tube method

COCC[n+]1ccn(C)c1.O=S(=O)([N-]S(=O)(=O)C(F)(F)F)C(F)(F)F + CO
Details | mass density [kg/m3] | surface tension liquid-gas [mN/m]
288.15 K, x1 = 0.1004 | 1121.11 ± 7.1 | 26.6 ± 2.7
288.15 K, x1 = 0.2003 | 1263.18 ± 8 | 28.5 ± 2.9
288.15 K, x1 = 0.2814 | 1330.61 ± 8.3 | 29.6 ± 3
288.15 K, x1 = 0.4004 | 1394.19 ± 8.7 | 31.5 ± 3.2
288.15 K, x1 = 0.4987 | 1429.08 ± 8.9 | 33.1 ± 3.3
288.15 K, x1 = 0.5949 | 1454.46 ± 9 | 34.8 ± 3.5
288.15 K, x1 = 0.704 | 1476.43 ± 9.2 | 36.9 ± 3.7
288.15 K, x1 = 0.8042 | 1492.31 ± 9.3 | 38.6 ± 3.9
288.15 K, x1 = 0.9003 | 1504.71 ± 9.3 | 40.1 ± 4
288.15 K, x1 = 1 | 1515.3 ± 9.4 | 41.4 ± 4.2
293.15 K, x1 = 0.1004 | 1116 ± 7.1 | 26.2 ± 2.6
293.15 K, x1 = 0.2003 | 1257.97 ± 7.9 | 28.1 ± 2.8
293.15 K, x1 = 0.2814 | 1325.38 ± 8.3 | 29.3 ± 2.9
293.15 K, x1 = 0.4004 | 1388.96 ± 8.7 | 31.1 ± 3.1
293.15 K, x1 = 0.4987 | 1423.86 ± 8.9 | 32.8 ± 3.3
293.15 K, x1 = 0.5949 | 1449.25 ± 9 | 34.5 ± 3.5
293.15 K, x1 = 0.704 | 1471.24 ± 9.1 | 36.6 ± 3.7
293.15 K, x1 = 0.8042 | 1487.14 ± 9.2 | 38.3 ± 3.8
293.15 K, x1 = 0.9003 | 1499.56 ± 9.3 | 39.8 ± 4
293.15 K, x1 = 1 | 1510.15 ± 9.4 | 41.2 ± 4.1
298.15 K, x1 = 0.1004 | 1110.88 ± 7 | 25.7 ± 2.6
298.15 K, x1 = 0.2003 | 1252.76 ± 7.9 | 27.7 ± 2.8
298.15 K, x1 = 0.2814 | 1320.14 ± 8.3 | 28.9 ± 2.9
298.15 K, x1 = 0.4004 | 1383.74 ± 8.7 | 30.8 ± 3.1
298.15 K, x1 = 0.4987 | 1418.64 ± 8.8 | 32.5 ± 3.3
298.15 K, x1 = 0.5949 | 1444.06 ± 9 | 34.2 ± 3.4
298.15 K, x1 = 0.704 | 1466.08 ± 9.1 | 36.4 ± 3.6
298.15 K, x1 = 0.8042 | 1481.99 ± 9.2 | 38.1 ± 3.8
298.15 K, x1 = 0.9003 | 1494.42 ± 9.3 | 39.6 ± 4
298.15 K, x1 = 1 | 1505.03 ± 9.4 | 41 ± 4.1
303.15 K, x1 = 0.1004 | 1105.74 ± 7 | 25.2 ± 2.5
303.15 K, x1 = 0.2003 | 1247.54 ± 7.9 | 27.3 ± 2.7
303.15 K, x1 = 0.2814 | 1314.92 ± 8.2 | 28.6 ± 2.9
303.15 K, x1 = 0.4004 | 1378.52 ± 8.6 | 30.5 ± 3.1
303.15 K, x1 = 0.4987 | 1413.44 ± 8.8 | 32.2 ± 3.2
303.15 K, x1 = 0.5949 | 1438.88 ± 8.9 | 34 ± 3.4
303.15 K, x1 = 0.704 | 1460.92 ± 9.1 | 36.1 ± 3.6
303.15 K, x1 = 0.8042 | 1476.85 ± 9.2 | 37.8 ± 3.8
303.15 K, x1 = 0.9003 | 1489.3 ± 9.2 | 39.4 ± 4
303.15 K, x1 = 1 | 1499.92 ± 9.3 | 40.7 ± 4.1
308.15 K, x1 = 0.1004 | 1100.6 ± 7 | 24.6 ± 2.5
308.15 K, x1 = 0.2003 | 1242.33 ± 7.8 | 26.9 ± 2.7
308.15 K, x1 = 0.2814 | 1309.69 ± 8.2 | 28.2 ± 2.8
308.15 K, x1 = 0.4004 | 1373.31 ± 8.6 | 30.1 ± 3
308.15 K, x1 = 0.4987 | 1408.26 ± 8.8 | 31.9 ± 3.2
308.15 K, x1 = 0.5949 | 1433.72 ± 8.9 | 33.7 ± 3.4
308.15 K, x1 = 0.704 | 1455.77 ± 9 | 35.8 ± 3.6
308.15 K, x1 = 0.8042 | 1471.73 ± 9.1 | 37.6 ± 3.8
308.15 K, x1 = 0.9003 | 1484.2 ± 9.2 | 39.1 ± 3.9
308.15 K, x1 = 1 | 1494.83 ± 9.3 | 40.5 ± 4.1
313.15 K, x1 = 0.1004 | 1095.44 ± 6.9 | 24.2 ± 2.4
313.15 K, x1 = 0.2003 | 1237.11 ± 7.8 | 26.5 ± 2.7
313.15 K, x1 = 0.2814 | 1304.47 ± 8.2 | 27.8 ± 2.8
313.15 K, x1 = 0.4004 | 1368.12 ± 8.6 | 29.9 ± 3
313.15 K, x1 = 0.4987 | 1403.08 ± 8.8 | 31.6 ± 3.2
313.15 K, x1 = 0.5949 | 1428.57 ± 8.9 | 33.4 ± 3.3
313.15 K, x1 = 0.704 | 1450.64 ± 9 | 35.6 ± 3.6
313.15 K, x1 = 0.8042 | 1466.63 ± 9.1 | 37.4 ± 3.8
313.15 K, x1 = 0.9003 | 1479.12 ± 9.2 | 38.9 ± 3.9
313.15 K, x1 = 1 | 1489.77 ± 9.3 | 40.3 ± 4
318.15 K, x1 = 0.1004 | 1090.28 ± 6.9 | 23.8 ± 2.4
318.15 K, x1 = 0.2003 | 1231.89 ± 7.8 | 26.1 ± 2.6
318.15 K, x1 = 0.2814 | 1299.25 ± 8.1 | 27.5 ± 2.8
318.15 K, x1 = 0.4004 | 1362.93 ± 8.5 | 29.6 ± 3
318.15 K, x1 = 0.4987 | 1397.92 ± 8.7 | 31.4 ± 3.1
318.15 K, x1 = 0.5949 | 1423.44 ± 8.8 | 33.2 ± 3.3
318.15 K, x1 = 0.704 | 1445.47 ± 9 | 35.4 ± 3.5
318.15 K, x1 = 0.8042 | 1461.52 ± 9.1 | 37.1 ± 3.7
318.15 K, x1 = 0.9003 | 1474.06 ± 9.2 | 38.7 ± 3.9
318.15 K, x1 = 1 | 1484.72 ± 9.2 | 40.1 ± 4
